Experiments:
[1] = Solid phase assay for lead: protein on nitrocellulose with chromogenic dye; settings: combined results, various buffers, pH, salts and dyes
Method: A solid phase assay for the detection of lead was also developed using one or more synthetically produced lead-binding proteins. Both TB4 and ACBP and the various mutants that have been generated from them can be used in this assay. The experiment is performed by binding the protein to a solid surface support, such as nitrocellulose paper, cotton, glass microfibers, or polystyrene beads using, for example, methods described herein. Then the sample to be tested, such as saliva or blood, is placed onto the surface and allowed to react with the protein. After washing with buffer, or example a neutral non-chelating buffer to remove any unreacted material, the sample is treated with a ligand that can detect a lead-leading binding protein complex, for example, a ligand that can cause a color chance upon detecting a lead-protein complex. Examples of such ligands include, sodium sulfide and sodium rhodizonic acid. Furthermore, the concentration of the lead in the sample being tested may be determined by the intensity of the spot produced upon binding of the dye. […]
As a control, the assay was tested using solutions containing several different buffers, pH conditions, and salts for reaction with the sodium sulfide and sodium rhodizonic acid dyes used. […] The pH was determined empirically for rhodizonic acid over a range of pH 4 to pH 8. […]

[2] = lead binding; Quintanilla-Vega 1995, Smith 1998; read-out: dissociation constant (Kd) of high affinity lead-binding region; cited from earlier work

In the case of “thymosin beta-4 (MSDKPDMAEIEKFDKSKLKKTETQEKNPLPSKETIEQEKQAGES; listed as Homo sapiens) [TB4]”, the “performance of solid phase lead detection assay” value [1] is given as “works well under various conditions” and the Kd [2] is given as about 1 nM.

Reference: patent US20050049201A1, “Detection and removal of lead using lead-binding proteins” (priority 2001, published 2005)
